This passage reports IC50 and IC90 results from ChEMBL document CHEMBL4483862, “Open-source discovery of chemical leads for next-generation chemoprotective antimalarials” (2018).

As a reminder, the IC50 is the point on the concentration scale where inhibition reaches its midpoint. The IC90 is the concentration needed for an effect of 90%.

This assay deals with Plasmodium berghei. Description: Luciferase/luciferin-expressing antifolate-resistant parasites were used to infect a culture of HepG2 cells that were pre-incubated with compounds. Infected hepatocytes emit light due to the luciferase reaction. Assay results are presented as the percent inhibition of light emission compared to control. […]. Type of assay: functional. The conditions noted are these: sporozoite; for IC90: read-out: LUCIFERASE INFECTION ASSAY - IC90.

Where [1] appears, read: read-out: LUCIFERASE INFECTION ASSAY - IC50.

Regarding `CCCOc1ccc(/C=N/NC(=S)Nc2ccccc2[N+](=O)[O-])c(O)c1`, the IC90 was 1 µM. Further, for the setting “HEPG2TOX_HILL_SLOPE 3.34, HEPG2TOX_R_SQUARED 0.913, PBLUC_HILL_SLOPE 0.962, PBLUC_R_SQUARED 0.919, read-out: LUCIFERASE INFECTION ASSAY - IC50”, the IC50 was 0.102 µM.
As for `COc1ccccc1C(=O)Nc1c(C#N)cnn1-c1nc(C)cc(C)n1`, the IC90 worked out at 7.94 µM. Also, the IC50 (PBLUC_HILL_SLOPE 2.98, PBLUC_R_SQUARED 0.592, read-out: LUCIFERASE INFECTION ASSAY - IC50) was determined as 3.8 µM.
On to `CCOC(=O)c1sc(SC)c2c1CC(c1ccccc1)CC2=O` (centres undefined), for which the IC90 is > 9.52 µM. Further, the IC50 under setting [1] is > 9.52 µM.
As to `O=C(Nc1cc(Cl)ccc1O)c1ccccc1CSc1ccc(Cl)cc1`, the IC90 amounted to 7.79 µM. Besides, the IC50 (HEPG2TOX_HILL_SLOPE 7.65, HEPG2TOX_R_SQUARED 0.733, PBLUC_HILL_SLOPE 11.9, PBLUC_R_SQUARED 0.0529, read-out: LUCIFERASE INFECTION ASSAY - IC50) was determined as 6.47 µM.
Consider `Cc1ccc2nc(NC(=O)c3cc(F)ccc3C)c(C(=O)NCC(C)C)n2c1`, for which the IC90 came out at 3.84 µM. Moreover, for the setting “HEPG2TOX_HILL_SLOPE 2.69, HEPG2TOX_R_SQUARED 0.883, PBLUC_HILL_SLOPE 9.75, PBLUC_R_SQUARED 0.136, read-out: LUCIFERASE INFECTION ASSAY - IC50”, the IC50 worked out at 3.07 µM.
As for `CC(C)Cc1ccc(C(=O)CC(Sc2ccccc2N)c2cccc([N+](=O)[O-])c2)cc1` (centres undefined), the IC90 was found to be 2.86 µM. Also, the IC50 (FFLUC_HILL_SLOPE 39.9, FFLUC_R_SQUARED 0.525, PBLUC_HILL_SLOPE 1.28, PBLUC_R_SQUARED 0.727, read-out: LUCIFERASE INFECTION ASSAY - IC50) is 0.511 µM.
Turning to `CN(CCO)C(=O)Nc1sc2c(c1C(N)=O)CCC2`, the IC90 was > 11.6 µM. The IC50 under setting [1] was > 11.6 µM.
On to `COCCNc1ccnc2c(-c3ccccc3Oc3ccccc3)cnn12`, for which the IC90 was > 9.16 µM. Also, the IC50 (FFLUC_HILL_SLOPE 3.47, FFLUC_R_SQUARED 0.0365, PBLUC_HILL_SLOPE 0.975, PBLUC_R_SQUARED 0.706, read-out: LUCIFERASE INFECTION ASSAY - IC50) was found to be 3.91 µM.
Regarding `Cc1cc(/C=C/C(=O)Nc2ccc(S(=O)(=O)NC3=NCCCCC3)cc2)c(C)n1-c1ccccc1`, the IC90 is 6.38 µM. Besides, the IC50 (FFLUC_HILL_SLOPE 1.16, FFLUC_R_SQUARED 0.166, PBLUC_HILL_SLOPE 1.89, PBLUC_R_SQUARED 0.7, read-out: LUCIFERASE INFECTION ASSAY - IC50) came to 2 µM.
Take `CCCC(=O)Nc1ccc(-c2csc(NC(=O)c3cc(C)oc3C)n2)cc1`: the IC90 was > 10 µM. Further, the IC50 under setting [1] is > 10 µM.
On to `CO/N=C1\CC(C)(C)Cc2c(-c3ccn(S(=O)(=O)c4ccc(Cl)cc4)n3)sc(SC)c21`, for which the IC90 is > 6.65 µM. In addition, the IC50 (FFLUC_HILL_SLOPE 0.891, FFLUC_R_SQUARED 0.151, read-out: LUCIFERASE INFECTION ASSAY - IC50) was > 6.65 µM.
`CC(=O)c1c(C)[nH]c(C(=O)OCCOc2ccccc2)c1C`: the IC90 was > 10 µM. Besides, under “PBLUC_HILL_SLOPE 1.04, PBLUC_R_SQUARED 0.638, read-out: LUCIFERASE INFECTION ASSAY - IC50”, the IC50 came to 1.81 µM.
With `CC(C)(C)c1ccccc1NC(=O)Nc1nc(C(N)Cc2ccc(Cl)cc2)cs1` (centres undefined), the IC90 is 5.51 µM. The IC50 (PBLUC_HILL_SLOPE 4.24, PBLUC_R_SQUARED 0.754, read-out: LUCIFERASE INFECTION ASSAY - IC50) came to 3.28 µM.
`O=C(c1c[nH]c(-c2ccnc(N3CCCC3)c2)c1)c1cc(Cl)ccc1O`: the IC90 was 1.6 µM. The 50% inhibitory concentration (IC50) (HEPG2TOX_HILL_SLOPE 4.74, 0.999, HEPG2TOX_R_SQUARED 0.925, 0.982, PBLUC_HILL_SLOPE 1.70, 2.23, PBLUC_R_SQUARED 0.381, 0.812, read-out: LUCIFERASE INFECTION ASSAY - IC50) amounted to 0.598 µM.
On to `Cc1cccn2c(C(=O)NC(C)C)c(NC(=O)c3cccc(C(F)(F)F)c3)nc12`, for which the IC90 is > 8.16 µM. Under setting [1], the IC50 was > 8.16 µM.
On to `CCc1cc2c(=O)n(Cc3ccco3)c(SCC(=O)N(C)C3CCS(=O)(=O)C3)nc2s1` (centres undefined), for which the IC90 is > 10 µM. Also, the IC50 under setting [1] is > 10 µM.
On to `CCOC(=O)/C(=C\c1cccc(Br)c1)C1=Nn2c(nnc2-c2ccc(OC)cc2)SC1`, for which the IC90 is > 10 µM. For the same compound, the IC50 under setting [1] is > 10 µM.
As to `Cc1cc2nnc(SC(C)C(=O)Nc3ccc([N+](=O)[O-])cc3C(F)(F)F)n2c2ccccc12` (centres undefined), the IC90 was > 10 µM. Also, the IC50 under setting [1] is > 10 µM.
Turning to `O=C1N=C(NC2CCCC2)S/C1=C\c1ccc(Cl)cc1`, the IC90 was > 10 µM. The IC50 under setting [1] is > 10 µM.
With `c1ccc(C(Nc2ncnc3sccc23)c2cccs2)cc1` (centres undefined), the IC90 was > 10 µM. For the setting “HEPG2TOX_HILL_SLOPE 2.82, HEPG2TOX_R_SQUARED 0.952, PBLUC_HILL_SLOPE 3.44, PBLUC_R_SQUARED 0.151, read-out: LUCIFERASE INFECTION ASSAY - IC50”, the IC50 is 7.24 µM.
In the case of `O=C(NCCCn1ccc2ccccc21)Nc1ccc(Cl)c(Cl)c1`, the IC90 was > 10 µM. In addition, the IC50 under setting [1] is > 10 µM.
For `CN(C)c1ccc(-c2cnc3cnc(-c4ccc(CO)cc4)cn23)cc1`, the IC90 is > 9.58 µM. The IC50 (HEPG2TOX_HILL_SLOPE 1.55, HEPG2TOX_R_SQUARED 0.978, PBLUC_HILL_SLOPE 1.15, PBLUC_R_SQUARED 0.872, read-out: LUCIFERASE INFECTION ASSAY - IC50) worked out at 1.58 µM.
Regarding `COc1cc(-c2cnc(N)c(-c3ccc(F)c(Cl)c3)c2)ccc1O`, the IC90 was > 9.57 µM. The IC50 (PBLUC_HILL_SLOPE 10.3, PBLUC_R_SQUARED 0.243, read-out: LUCIFERASE INFECTION ASSAY - IC50) was 8.4 µM.
As for `COCCn1c(C(=O)OC)c(NC(=O)c2ccco2)c2cc(NC(C)Cc3ccc(C)cc3)cnc21` (centres undefined), the IC90 was > 6.73 µM. In addition, the IC50 under setting [1] turned out to be 3.69 µM.
Consider `COc1ccc(-c2cnc3cnc(-c4ccsc4)cn23)cn1`, for which the IC90 came to 9.71 µM. For the same compound, the IC50 (PBLUC_HILL_SLOPE 12.3, PBLUC_R_SQUARED 0.383, read-out: LUCIFERASE INFECTION ASSAY - IC50) amounted to 8.12 µM.
`O=C(Cn1nc(-c2ccco2)oc1=O)N(Cc1ccccc1)c1ccccc1`: the IC90 is > 10 µM. In addition, the IC50 under setting [1] was > 10 µM.
Turning to `COc1ccc(N2C(=O)C=CC2=O)cc1`, the IC90 was > 16.2 µM. Further, the IC50 (FFLUC_HILL_SLOPE 16.4, FFLUC_R_SQUARED 0.242, read-out: LUCIFERASE INFECTION ASSAY - IC50) was > 16.2 µM.
On to `O=C(Nc1cccc(S(=O)(=O)Nc2ccc(Cl)cc2)c1)c1[nH]nc2ccccc12`, for which the 90% effect concentration (IC90) was > 10 µM. Moreover, the IC50 under setting [1] is 8.98 µM.
With `N#CC(C(=O)COC(=O)c1nc(-c2ccccc2)n(-c2ccccc2)n1)=C1Nc2ccccc2N1`, the IC90 is > 10 µM. The IC50 under setting [1] was > 10 µM.
With `Cc1sc2nc(CN3CCOCC3)nc(NCCOc3ccccc3)c2c1C`, the IC90 was > 10 µM. Besides, under setting [1], the IC50 is > 10 µM.
On to `CC1=Nn2cc(-c3ccccc3)nc2SC1c1ccccc1` (centres undefined), for which the IC90 turned out to be 1.79 µM. Further, the IC50 (FFLUC_HILL_SLOPE 0.814, FFLUC_R_SQUARED 0.91, PBLUC_HILL_SLOPE 0.719, PBLUC_R_SQUARED 0.79, read-out: LUCIFERASE INFECTION ASSAY - IC50) came out at 0.084 µM.
On to `NC(c1csc(Nc2nccc(C(F)(F)F)n2)n1)C1CCCCC1` (centres undefined), for which the IC90 is 3.66 µM. For the same compound, under setting [1], the IC50 is 2.8 µM.
With `CC(Sc1cc(C(N)=O)c2ccccc2n1)C(=O)Nc1cccc(F)c1` (centres undefined), the IC90 was > 10 µM. The IC50 under setting [1] was > 10 µM.
Consider `Cc1cc(Cl)ccc1NC(=O)c1cn(C)nc1C(F)(F)F`, for which the IC90 was > 10 µM. Further, the IC50 under setting [1] was > 10 µM.
Regarding `Nc1nccnc1C(=O)NNC(=O)c1cccc(C(F)(F)F)c1`, the IC90 was 7.02 µM. Besides, the IC50 (HEPG2TOX_HILL_SLOPE 7.79, HEPG2TOX_R_SQUARED 0.494, PBLUC_HILL_SLOPE 4.8, PBLUC_R_SQUARED 0.215, read-out: LUCIFERASE INFECTION ASSAY - IC50) is 4.44 µM.
`FC(F)(F)c1cccc(Nc2nnnc3ccccc23)c1`: the IC90 was found to be 3.71 µM. The IC50 (PBLUC_HILL_SLOPE 1.72, PBLUC_R_SQUARED 0.746, read-out: LUCIFERASE INFECTION ASSAY - IC50) turned out to be 1.03 µM.
As for `Cc1ccc(-n2c(=O)c3ccccc3n3c(SCc4nnnn4C4CC4)nnc23)c(C)c1`, the IC90 was > 10 µM. Moreover, the IC50 under setting [1] is > 10 µM.
As for `CC(C)(C)n1ncc(C(=O)NCCOc2ccccc2)c1C(F)(F)F`, the IC90 was > 10 µM. Also, the IC50 (PBLUC_HILL_SLOPE 0.7, PBLUC_R_SQUARED 0.775, read-out: LUCIFERASE INFECTION ASSAY - IC50) came out at 0.591 µM.
On to `O=C1N=C(Nc2cccnc2)S/C1=C/c1ccc2ncccc2c1`, for which the IC90 was 9.5 µM. For the same compound, the IC50 (HEPG2TOX_HILL_SLOPE 7.45, HEPG2TOX_R_SQUARED 0.476, PBLUC_HILL_SLOPE 2.82, PBLUC_R_SQUARED 0.798, read-out: LUCIFERASE INFECTION ASSAY - IC50) turned out to be 4.36 µM.
Regarding `Clc1ccc(/C=C/c2cnc3ccccc3n2)cc1`, the IC90 was > 12.4 µM. Also, the IC50 (PBLUC_HILL_SLOPE 0.854, PBLUC_R_SQUARED 0.483, read-out: LUCIFERASE INFECTION ASSAY - IC50) was determined as 2.04 µM.
Turning to `CCCCN(C(=O)c1csc(-c2ccc(C(C)C)cc2)n1)c1c(N)n(CCC)c(=O)[nH]c1=O`, the IC90 was > 10 µM. Besides, under setting [1], the IC50 is > 10 µM.
Consider `COc1ccccc1C1CCN(c2ccc([N+](=O)[O-])c(C(F)(F)F)c2)CC1`, for which the IC90 was > 8.68 µM. The IC50 under setting [1] is > 8.68 µM.
